SMILES strings stand for the structures. “And” between values parts separate entries of the source, which are not always exact repeats. Identical values can stand only once.

Here are results for 11 molecules from patent US5955462A, “Anti-neurogenic inflammatory compounds and compositions and methods of use thereof” (Harbor Branch Oceanographic Institution, Inc., priority 1997, dated 1999).

Test [1] concerns mouse ear. The test can be described thus: Inhibition of resiniferatoxin (RTX)-induced edema in a mouse ear model. Type of test: in vivo. The following applies: for ED50 for inhibition of RTX-induced edema: dose response curve. How it is done: A. Inhibition of Capsaicin-Induced Inflammation (Edema) of the Mouse Ear. Induction of mouse ear edema was based on known methods. Inoue, H., Nagata, N., and Koshihara, Y. (1993). Profile of capsaicin-induced mouse ear oedema as neurogenic inflammatory model: comparison with arachidonic acid-induced ear oedema. Br. J. Pharm 110:1614-20. […] CAP alone (250 μg/ear) or in combination with various dilutions of test compound are applied to both sides of the left ears (5 mice per treatment group) and acetone is applied to all right ears. After a 30 minute incubation, the mice are sacrificed, the ears removed, and bores taken and weighed. Edema is measured by subtracting the weight of the right ear (acetone control) from the weight of the left ear (treated).
B. Inhibition of Resiniferatoxin (RTX)-induced edema in a mouse ear model. Topsentin was also tested for its inhibitory activity against inflammation induced by the neurogenic inflammation producing compound, resiniferatoxin (RTX). Using a mouse ear model, the experimental procedure is substantially the same as that described for the capsaicin-induced inflammation assay (see section A of this Example, above).

The subject of test [2] is mouse ear. The test can be described thus: Inhibition of capsaicin-induced inflammation (edema) of the mouse ear. Type of test: in vivo. The following applies: for potency in inhibiting neurogenic inflammation compared with capsazepine: capsaicin-induced edema in mouse ears. An excerpt: The assay employing mice (e.g., administration to the ear of the mouse) is routinely used by those skilled in the art and is accepted as indicative of anti-inflammatory activity in humans. This assay is described below.
A. Inhibition of Capsaicin-Induced Inflammation (Edema) of the Mouse Ear. Induction of mouse ear edema was based on known methods. Inoue, H., Nagata, N., and Koshihara, Y. (1993). Profile of capsaicin-induced mouse ear oedema as neurogenic inflammatory model: comparison with arachidonic acid-induced ear oedema. Br. J. Pharm 110:1614-20. Compounds to be tested for anti-neurogenic inflammatory activity are topically applied in acetone to the ears of mice in a solution that includes the edema-causing irritant, capsaicin (CAP). CAP alone (250 μg/ear) or in combination with various dilutions of test compound are applied to both sides of the left ears (5 mice per treatment group) and acetone is applied to all right ears. After a 30 minute incubation, the mice are sacrificed, the ears removed, and bores taken and weighed. Edema is measured by subtracting the weight of the right ear (acetone control) from the weight of the left ear (treated). Results are recorded as % decrease (inhibition) or % increase (potentiation) in edema relative to the control group edema.

Where [3] appears, read: Mus musculus, topical, 50 μg/ear, read-out: % Inh. of Edema.
The mark [4] stands for this setting: Mus musculus, topical, 3.12 μg/ear, read-out: % Inh. of Edema.
The mark [5] stands for this setting: Mus musculus, topical, 6.25 μg/ear, read-out: % Inh. of Edema.
Setting [6] is: Mus musculus, topical, 12.5 μg/ear, read-out: % Inh. of Edema.
Setting [7] is: Mus musculus, topical, 25 μg/ear, read-out: % Inh. of Edema.
The mark [8] stands for this setting: 3.12 μg/ear, listed as hamacanthin b.
[9] abbreviates: 50 μg/ear, listed as hamacanthin b.

With `Brc1ccc2c(-c3c[nH]c(-c4c[nH]c5cc(Br)ccc45)n3)c[nH]c2c1` [Nortopsentin A], the “Mean difference” value in test [1] (50 μg/ear) is -0.4 mg. For the same molecule, in test [1] (setting [3]), the inhibition in vivo at 50 µg/ear was 100%.
As for `CS(=O)(=O)Oc1ccc2c(C(=O)c3nc(-c4c[nH]c5cc(Br)ccc45)c[nH]3)c[nH]c2c1` [o-mesylbromotopsentin, bromotopsentin-O-mesylate], the “Mean difference” value in test [1] (3.12 μg/ear) amounted to 9.2 mg; in test [1] (6.25 μg/ear), 7.2 mg; in test [1] (12.5 μg/ear), 8.3 mg; in test [1] (25 μg/ear) it was 2.3 mg; in test [1] (50 μg/ear), 3 mg. In test [1] (50 μg on the ear), the “inhibition of RTX-induced edema in certain animals” value (shortened to “inhibition … in certain animals”) is given as 70%. In addition, the inhibition in vivo at 3.12 µg/ear in test [1] (setting [4]) was determined as 8.9%. Besides, the inhibition in vivo at 6.25 µg/ear in test [1] (setting [5]) worked out at 28%. Further, the inhibition in vivo at 12.5 µg/ear in test [1] (setting [6]) worked out at 86.8%. Further, the inhibition in vivo at 25 µg/ear in test [1] (setting [7]) was determined as 77.6%. The inhibition in vivo at 50 µg/ear in test [1] (setting [3]) is 70.3%. Further, the “ED50 for inhibition of RTX-induced edema” value in test [1] was “about 17 μg/ear”.
As for `O=C(c1nc(-c2c[nH]c3cc(Br)ccc23)c[nH]1)c1c[nH]c2cc(O)ccc12` [Bromotopsentin], the “% Inhibition of capsaicin-induced edema” value in test [2] (500 μg/ear) turned out to be 79%. In test [2], the “potency in inhibiting neurogenic inflammation compared with capsazepine” value is “greater potency in inhibiting neurogenic inflammation than capsazepine”.
In the case of `Brc1ccc2c(-c3nc(-c4c[nH]c5ccccc45)c[nH]3)c[nH]c2c1` [Nortopsentin B], the “Mean difference” value in test [1] (50 μg/ear) was determined as 0.9 mg. Besides, the inhibition in vivo at 50 µg/ear in test [1] (setting [3]) came to 91.2%.
`O=C(C1=NC(c2c[nH]c3cc(Br)ccc23)CN1)c1c[nH]c2ccccc12` (centres unmarked) [4,5-dihydro-6"-deoxybromotopsentin]: the “Mean difference” value in test [1] (50 μg/ear) amounted to 3.3 mg. For the same molecule, in test [1] (setting [3]), the inhibition in vivo at 50 µg/ear was 87.1%.
As to `O=C(c1nc(-c2c[nH]c3ccccc23)c[nH]1)c1c[nH]c2cc(O)ccc12` [Topsentin], the “% Inhibition of capsaicin-induced edema” value was 28% in test [2] (100 μg/ear); “more than 25%” in test [2] (100 μg/ear, listed as topsentin); 66% in test [2] (250 μg/ear); 74% in test [2] (500 μg/ear); 90% in test [2] (1000 μg/ear). For the same molecule, the “Inflammation (mg) ± SEM” value in test [2] (100 μg/ear topical, capsaicin 250 μg/ear) came to 4.8 ± 1.0 mg. Moreover, the “potency in inhibiting neurogenic inflammation compared with capsazepine” value in test [2] is “greater potency in inhibiting neurogenic inflammation than capsazepine”. Also, in test [2] (dose-response curve, FIG. 1), the “ED50 in inhibition of capsaicin-induced inflammation” value is recorded as “about 200 μg/ear”. Besides, the “percent inhibition of edema (up to)” value in test [2] (final concentration of about 1000 μM) was “approximately 90%”. Further, the “Mean difference” value in test [1] (5 μg/ear) turned out to be 12.3 mg; in test [1] (10 μg/ear), 9.6 mg; in test [1] (25 μg/ear), 8.3 mg; in test [1] (50 μg/ear), 2.6 mg; in test [1] (100 μg/ear) it was 1.3 mg. The “inhibition … in certain animals” value in test [1] (100 μg on the ear) was “about 100%”. Also, the inhibition in vivo at 5 µg/ear in test [1] (Mus musculus, topical, 5 μg/ear, read-out: % Inh. of Edema) was approximately 12%. Further, the inhibition in vivo at 10 µg/ear in test [1] (Mus musculus, topical, 10 μg/ear, read-out: % Inh. of Edema) turned out to be 31%. Moreover, the inhibition in vivo at 25 µg/ear in test [1] (setting [7]) stood at 41%. Further, the inhibition in vivo at 50 µg/ear in test [1] (setting [3]) turned out to be 82%. In addition, the inhibition in vivo at 100 µg/ear in test [1] (Mus musculus, topical, 100 μg/ear, read-out: % Inh. of Edema) is approximately 91%. In test [1], the “ED50 for inhibition of RTX-induced edema” value is listed as “about 20 μg/ear”.
For `Brc1ccc2c(-c3c[nH]c(-c4c[nH]c5ccccc45)n3)c[nH]c2c1` [Nortopsentin C], the “Mean difference” value in test [1] (3.12 μg/ear) is on record as 9.3 mg; in test [1] (6.25 μg/ear), 5.4 mg; in test [1] (12.5 μg/ear), 1.3 mg; in test [1] (25 μg/ear), 1.0 mg; in test [1] (50 μg/ear), 0.2 mg. Moreover, the “inhibition … in certain animals” value in test [1] (50 μg on the ear) was approximately 100%. In test [1] (setting [4]), the inhibition in vivo at 3.12 µg/ear came out at 5.9%. Moreover, the inhibition in vivo at 6.25 µg/ear in test [1] (setting [5]) came out at 45%. For the same molecule, in test [1] (setting [6]), the inhibition in vivo at 12.5 µg/ear worked out at 86.8%. In addition, the inhibition in vivo at 25 µg/ear in test [1] (setting [7]) was 90.2%. The inhibition in vivo at 50 µg/ear in test [1] (setting [3]) is approximately 98%. Moreover, the “ED50 for inhibition of RTX-induced edema” value in test [1] was “about 8 μg/ear”.
For `NCC(c1c[nH]c2cc(Br)ccc12)c1c[nH]c2cc(Br)ccc12` [2,2-bis(6-bromoindol-3-yl)ethyl amine], the “Mean difference” value is recorded as 11.9 mg in test [1] (3.12 μg/ear); 13.2 mg in test [1] (6.25 μg/ear); 5.8 mg in test [1] (12.5 μg/ear); 2.1 mg in test [1] (25 μg/ear); 0.1 mg in test [1] (50 μg/ear). Besides, the “inhibition … in certain animals” value in test [1] (50 μg on the ear) is approximately 100%. Also, in test [1] (setting [4]), the inhibition in vivo at 3.12 µg/ear was 6.8%. Moreover, the inhibition in vivo at 6.25 µg/ear in test [1] (setting [5]) worked out at 18%. The inhibition in vivo at 12.5 µg/ear in test [1] (setting [6]) is 86.8%. The inhibition in vivo at 25 µg/ear in test [1] (setting [7]) came out at 81.5%. Also, the inhibition in vivo at 50 µg/ear in test [1] (setting [3]) was approximately 99%. Further, the “ED50 for inhibition of RTX-induced edema” value in test [1] is given as “about 18.1 μg/ear”.
`CC(c1c[nH]c(N)n1)c1ccc(O)c2[nH]cc(-c3cnc(-c4c[nH]c5cc(Br)ccc45)c(=O)[nH]3)c12` (centres unmarked) [Dragmacidin d, Dragmacidin-d]: the “Mean difference” value in test [1] (50 μg/ear) was 1.4 mg. Moreover, in test [1] (setting [3]), the inhibition in vivo at 50 µg/ear was 89.6%.
Turning to `Oc1cc2c(cc1O)CN(C(=S)NCCc1ccc(Cl)cc1)CCC2` [Capsazepine, reference compound], the “% Inhibition of capsaicin-induced edema” value is recorded as 33% in test [2] (500 μg/ear), 52% in test [2] (1000 μg/ear) and 76% in test [2] (1500 μg/ear).
`O=C1NC[C@H](c2c[nH]c3cc(Br)ccc23)N=C1c1c[nH]c2cc(Br)ccc12` [Hamacanthin B]: the “Mean difference” value in test [1] (3.12 μg/ear) came to 3.9 mg; in test [1] (6.25 μg/ear), 6.7 mg; in test [1] (12.5 μg/ear), 4.9 mg; in test [1] (25 μg/ear) it was 2.3 mg; in test [1] (50 μg/ear), 0.4 mg. The “% Inh. of Edema” value in test [1] (3.12 μg/ear, listed as Hamacanthin b) is given as 68%; in test [1] (setting [8]) it was 68.8%; in test [1] (6.25 μg/ear), 46.0%; in test [1] (12.5 μg/ear), 86.8%; in test [1] (25 μg/ear), 81.6%; in test [1] (50 μg/ear, listed as Hamacanthin b), “about 97%”. For the same molecule, in test [1] (setting [9]), the “% Inh. of Edema” value is given as 96.9%. For the same molecule, the “Difference (mg), left minus right ear, individual animal” value is 4.4 mg and 6.9 mg and 1.5 mg and 1.2 mg and 5.3 mg in test [1] (setting [8]); 6.9 mg and 7.4 mg and 7.0 mg and 8.4 mg and 5.4 mg in test [1] (6.25 μg/ear); 4.6 mg and 4.1 mg and 6.1 mg and 8.3 mg and 1.4 mg in test [1] (12.5 μg/ear); 2.3 mg and 4.2 mg and 2.0 mg and 1.0 mg and 1.9 mg in test [1] (25 μg/ear); 0.2 mg and 0.0 mg and 1.4 mg and 0.1 mg in test [1] (setting [9]). The “inhibition … in certain animals” value in test [1] (50 μg on the ear) is given as approximately 100%. Moreover, the “ED50 for inhibition of RTX-induced edema” value in test [1] is listed as “about 1.5 μg/ear”.
